Experimental data published in US20160029626A1 (priority 2011, published 2016).
“Also recorded” adds a separate entry of the source.

Experiments:
biofilm of X. fastidiosa = type: cell-based, Xylella fastidiosa 9a5c strain
X. fastidiosa [1] = type: cell-based, Xylella fastidiosa 9a5c strain
[2] = Quantification of NAC by HPLC in nutrient solution of Leonard pots with plants (uptake by the plant); details: for Measured Conc of NAC in the samples collected: nutrient solution after one day with the plant
[3] = test system: Peseudomonas aeruginosa, Klebsiella pneumoniae Enterobacter cloacae, and Staphylococcus aureus; details: Parry et al. (1976); cited from earlier work
X. fastidiosa [4] = test system: X. fastidiosa; design: species or system orange pear (Citrus sinenses); details: in vivo
[5] = test system: citrus variegated chlorosis (CVC), X. fastidiosa; design: species or system orange pear (Citrus sinenses); details: in vivo
X. fastidiosa biofilm = type: cell-based, Xylella fastidiosa 9a5c strain
orange pear plants = test: Plant development under NAC treatment (phytotoxicity); type: in vivo, orange pear (Citrus sinenses)
Protocol: 2. Experiments using NAC on infected plants: An analysis was performed with quantitative PCR, as described in sequence, to quantify the initial population of bacteria in plants. The plants were then transferred to Leonard pots, constructed from 750 mL glass bottles, cut and painted with metallic paint to prevent light penetration. Previously autoclaved, vermiculite and sand were added to the top of the vessel and in the collecting part, a Hoagland Arnon (1950) nutrient solution (FIG. 8). Two experiments were performed with different doses of N-acetyl L-cysteine (NAC), both conducted in a greenhouse (see table 1 below).
The first of the experiments was a pilot, in which 120 mg and 600 mg of N-acetyl L -cysteine (NAC) were added to 250 mL of Hoagland & Arnon (1950). Control plants were also maintained without addition of N-acetyl L-cysteine (NAC). The second test had plants to which were added 120 mg, 600 mg and 1500 mg L30 N-acetyl cysteine (NAC) along with 250 mL of nutrient solution of Hoagland & Arnon (1950) and control experiments without the addition of the compound. 4 biological repetitions were performed for each treatment in each experiment.

[6] = Degradation of NAC in Hoagland nutrient solution in greenhouse (without plants), HPLC; type: physicochemical; details: 187.5 mg/mL expected without degradation
Protocol: A study to check the degradation of N-acetyl L-cysteine (NAC) was also performed in a Hoagland nutrient solution under the same conditions in which the in vivo experiment was carried out. The nutrient solution of Hoagland was prepared and placed in the receiving party of potted Leonard (without plants), as well as 600 mg N-acetyl L-cysteine (NAC).

X. fastidiosa [7] = test system: X. fastidiosa; design: species or system orange pear (Citrus sinenses); details: in vivo; remark: listed apart in the source
[8] = test system: Streptococcus epidermidis, and Haemophilus influenzae, Moraxella catarrhalis; details: Zheng et al., 1999; OLOFSSON et al., 2003; cited from earlier work

CC(=O)N[C@@H](CS)C(=O)O [NAC, N-acetyl L-cysteine]
lowering of EPS between control and treatment (biofilm of X. fastidiosa; 6 mg/ml NAC): about 45%
total amount of EPS vs control (biofilm of X. fastidiosa; NAC 1, 2, 6 mg/mL): In control, the total amount of EPS was greater
CFU/mL in biofilm vs control (X. fastidiosa [1]; 1 mg/mL NAC): lower than in the control biofilm
reduction of number of living cells present in the biofilm (X. fastidiosa [1]; 6 mg/mL NAC): ~100%
toxic action towards X. fastidiosa cells (X. fastidiosa [1]; in vitro, 1.0, 2.0 or 6.0 mg/mL): toxic action; also recorded: toxic to the cells of bacteria
CFU of planktonic cells in serial dilution (X. fastidiosa [1]; planktonic cells, NAC treatments, after 3 washes): not possible to count any CFU
absorption of the substance by the plant ([2]; 1500 mg NAC in 250 mL): absorption of the substance by the plant does not occur
transport of NAC by the plant ([2]; measured concentrations below those expected (lower doses)): could be transported by the plant
Measured Conc of NAC in the samples collected ([2]; total NAC 120 mg (expected 0.48 mg/mL)): 0.288 mg/mL
Measured Conc of NAC in the samples collected ([2]; total NAC 600 mg (expected 2.4 mg/mL)): 1.98 mg/mL
Measured Conc of NAC in the samples collected ([2]; total NAC 1500 mg (expected 6.0 mg/mL)): 6.156 mg/mL
efficiency regarding the adhesion of bacteria [3]: demonstrated efficiency
number of X. fastidiosa cells isolated from plants after treatment (X. fastidiosa [4]): decrease in the number of X. fastidiosa cells; also recorded: strong decrease of bacteria
CVC symptoms after interruption of treatment [5]: symptoms were observed to be less severe; also recorded: chlorosis spots were not observed
CVC symptoms in the leaves [5]: visible reduction of symptoms; also recorded: some points chlorosis in the leaves, but in smaller quantities; also recorded: hardly possible to see symptoms; also recorded: visibly smaller
control of the bacterium (symptoms and number of bacterial cells in leaves) [5]: effective in controlling the bacterium
symptoms in treated plants [5]: significant reduction of symptoms
symptoms later than two months after interruption of treatment [5]: resurgence of symptoms
cell mass of biofilms compared to the control condition (X. fastidiosa biofilm; different doses of NAC (1, 2, 6 mg/mL), 14 days): reduced compared to the control condition
cell mass of planktonic cells (X. fastidiosa biofilm; different doses of NAC (1, 2, 6 mg/mL), planktonic fraction): increase in mass
biofilm formation (X. fastidiosa biofilm; doses of 1.0, 2.0 or 6.0 mg/mL): inhibited biofilm formation
plant development (orange pear plants; 1500 mg NAC in 250 mL nutrient solution): plant development was clearly affected; also recorded: fall of leaves, wilting and visible damage to the physiological development of the plant
plant development after interruption of treatment (orange pear plants; 1500 mg NAC, two months in soil without treatment): remained less developed
plant development (orange pear plants; lower doses (120 and 600 mg) NAC): do not cause problems for plant development
concentration of NAC remaining in Hoagland solution ([6]; after 1 day in greenhouse): 143140 µg/mL
concentration of NAC remaining in Hoagland solution ([6]; after 7 days in greenhouse): 63220 µg/mL
concentration of NAC remaining in Hoagland solution ([6]; after 14 days in greenhouse): 3150 µg/mL
amount of bacteria in each plant by qPCR (X. fastidiosa [7]): does not appear to have been affected
adhesion of human pathogenic bacteria in epithelial cells and surface abiotic [8]: reduce the adhesion
